Where a name gives a salt, the structure may show the parent alone.
Target: lactate dehydrogenase A (LDH-A) (Homo sapiens, UniProt P00338)
Assay: biochemical
Experimental: Assay buffer (50 mM potassium phosphate, pH 7.0, 50 mM NaCl, 0.25 mM CHAPS, 0.0025% BSA) is added to one column of a standard assay plate stamped with DMSO solutions of test compounds. A solution of LDH-A and NAD+ (final concentrations: 300 pM LDH-A and 150 uM NAD+) in assay buffer is added to remaining plate wells containing DMSO solutions of test compounds and DMSO only control wells and the mixtures incubated for 10 min at room temperature. A solution of lactate, resazurin, diaphorase (final concentrations: 2 mM lactate, 6.25 uM resazurin, 0.4 U/mL diaphorase) in assay buffer is added to all wells and the mixtures incubated for 30 min at room temperature. Stop solution (2 uL, components: assay buffer and 25 mM oxamate) is added to each well and the fluoresecence intensity increase (FLINT) measured at 590 nm on a ViewLux®imager.

For `COc1ncc(-c2ccc3c(Nc4cc(C(=O)O)cc(C(C)C(C)C)c4)c(C(N)=O)cnc3c2)c(OC)n1` (stereo not shown) [Example 60, 3-({3-(aminocarbonyl)-7-[2,4-bis(methyloxy)-5-pyrimidinyl]-4-quinolinyl}amino)-5-(1,2-dimethylpropyl)benzoic acid, acetate salt], the IC50 was 63.1 nM.
